Results as given in ChEMBL document CHEMBL3045835, “Comparative study of conventional and microwave-assisted synthesis of some Schiff bases and their potential as antimicrobial agents” (2012).
In brackets after ≈: the same amount, converted by molar mass.

Legend:
Assay type in all cases: functional
Pseudomonas aeruginosa [1] = assay: Antibacterial activity against Pseudomonas aeruginosa MTCC 424 after 24 hr by broth dilution method; conditions: MTCC 424, 24 h
Micrococcus luteus = assay: Antibacterial activity against Micrococcus luteus MTCC 1538 after 24 hr by broth dilution method; conditions: MTCC 1538, 24 h
Bacillus pumilus = assay: Antibacterial activity against Bacillus pumilus MTCC 1456 after 24 hr by broth dilution method; conditions: MTCC 1456, 24 h
Staphylococcus aureus = assay: Antibacterial activity against Staphylococcus aureus MTCC 1430 after 24 hr by broth dilution method; conditions: MTCC 1430, 24 h
Bacillus subtilis = assay: Antibacterial activity against Bacillus subtilis MTCC 441 after 24 hr by broth dilution method; conditions: MTCC 441, 24 h
Pseudomonas fluorescens [2] = assay: Antibacterial activity against Pseudomonas fluorescens MTCC 2421 at 1000 ug/ml after 18 hr by cup-plate method; conditions: MTCC 2421, 18 h, read-out: DIZ
Pseudomonas fluorescens [3] = assay: Antibacterial activity against Pseudomonas fluorescens MTCC 2421 at 1500 ug/ml after 18 hr by cup-plate method; conditions: MTCC 2421, 18 h, read-out: DIZ
Pseudomonas fluorescens [4] = assay: Antibacterial activity against Pseudomonas fluorescens MTCC 2421 at 500 ug/ml after 18 hr by cup-plate method; conditions: MTCC 2421, 18 h, read-out: DIZ
Pseudomonas fluorescens [5] = assay: Antibacterial activity against Pseudomonas fluorescens MTCC 2421 at 200 ug/ml after 18 hr by cup-plate method; conditions: MTCC 2421, 18 h, read-out: DIZ
Penicillium chrysogenum [6] = assay: Antifungal activity against Penicillium chrysogenum MTCC 161 at 1500 ug/ml after 18 hr by cup-plate method; conditions: MTCC 161, 18 h, read-out: DIZ
Penicillium chrysogenum [7] = assay: Antifungal activity against Penicillium chrysogenum MTCC 161 at 1000 ug/ml after 18 hr by cup-plate method; conditions: MTCC 161, 18 h, read-out: DIZ
Penicillium chrysogenum [8] = assay: Antifungal activity against Penicillium chrysogenum MTCC 161 at 500 ug/ml after 18 hr by cup-plate method; conditions: MTCC 161, 18 h, read-out: DIZ
Penicillium chrysogenum [9] = assay: Antifungal activity against Penicillium chrysogenum MTCC 161 at 200 ug/ml after 18 hr by cup-plate method; conditions: MTCC 161, 18 h, read-out: DIZ
Penicillium chrysogenum [10] = assay: Antifungal activity against Penicillium chrysogenum MTCC 161 at 100 ug/ml after 18 hr by cup-plate method; conditions: MTCC 161, 18 h, read-out: DIZ
Aspergillus niger [11] = assay: Antifungal activity against Aspergillus niger MTCC 2546 at 1000 ug/ml after 18 hr by cup-plate method; conditions: MTCC 2546, 18 h, read-out: DIZ
Aspergillus niger [12] = assay: Antifungal activity against Aspergillus niger MTCC 2546 at 1500 ug/ml after 18 hr by cup-plate method; conditions: MTCC 2546, 18 h, read-out: DIZ
Aspergillus niger [13] = assay: Antifungal activity against Aspergillus niger MTCC 2546 at 500 ug/ml after 18 hr by cup-plate method; conditions: MTCC 2546, 18 h, read-out: DIZ
Aspergillus niger [14] = assay: Antifungal activity against Aspergillus niger MTCC 2546 at 100 ug/ml after 18 hr by cup-plate method; conditions: MTCC 2546, 18 h, read-out: DIZ
Aspergillus niger [15] = assay: Antifungal activity against Aspergillus niger MTCC 2546 at 200 ug/ml after 18 hr by cup-plate method; conditions: MTCC 2546, 18 h, read-out: DIZ
Escherichia coli [16] = assay: Antibacterial activity against Escherichia coli MTCC 1573 at 1500 ug/ml after 18 hr by cup-plate method; conditions: MTCC 1573, 18 h, read-out: DIZ
Escherichia coli [17] = assay: Antibacterial activity against Escherichia coli MTCC 1573 at 500 ug/ml after 18 hr by cup-plate method; conditions: MTCC 1573, 18 h, read-out: DIZ
Escherichia coli [18] = assay: Antibacterial activity against Escherichia coli MTCC 1573 at 1000 ug/ml after 18 hr by cup-plate method; conditions: MTCC 1573, 18 h, read-out: DIZ
Escherichia coli [19] = assay: Antibacterial activity against Escherichia coli MTCC 1573 at 200 ug/ml after 18 hr by cup-plate method; conditions: MTCC 1573, 18 h, read-out: DIZ
Escherichia coli [20] = assay: Antibacterial activity against Escherichia coli MTCC 1573 at 100 ug/ml after 18 hr by cup-plate method; conditions: MTCC 1573, 18 h, read-out: DIZ
Pseudomonas fluorescens [21] = assay: Antibacterial activity against Pseudomonas fluorescens MTCC 2421 at 100 ug/ml after 18 hr by cup-plate method; conditions: MTCC 2421, 18 h, read-out: DIZ
Pseudomonas aeruginosa [22] = assay: Antibacterial activity against Pseudomonas aeruginosa MTCC 424 at 1500 ug/ml after 18 hr by cup-plate method; conditions: MTCC 424, 18 h, read-out: DIZ
Pseudomonas aeruginosa [23] = assay: Antibacterial activity against Pseudomonas aeruginosa MTCC 424 at 1000 ug/ml after 18 hr by cup-plate method; conditions: MTCC 424, 18 h, read-out: DIZ

## C(=N\c1nc[nH]n1)/c1cccs1
Pseudomonas aeruginosa [1]
  MIC: 200 µg/mL (≈ 1120 µM)
Micrococcus luteus
  MIC: 200 µg/mL (≈ 1120 µM)
Bacillus pumilus
  MIC: 200 µg/mL (≈ 1120 µM)
Staphylococcus aureus
  MIC: 300 µg/mL (≈ 1680 µM)
Bacillus subtilis
  MIC: 300 µg/mL (≈ 1680 µM)
Pseudomonas fluorescens [2]
  zone of inhibition at 1000 µg/mL: 18 mm
Pseudomonas fluorescens [3]
  zone of inhibition at 1500 µg/mL: 21 mm
Pseudomonas fluorescens [4]
  zone of inhibition at 500 µg/mL: 15 mm
Pseudomonas fluorescens [5]
  zone of inhibition at 200 µg/mL: 13 mm
Penicillium chrysogenum [6]
  zone of inhibition at 1500 µg/mL: 19 mm
Penicillium chrysogenum [7]
  zone of inhibition at 1000 µg/mL: 18 mm
Penicillium chrysogenum [8]
  zone of inhibition at 500 µg/mL: 16 mm
Penicillium chrysogenum [9]
  zone of inhibition at 200 µg/mL: 15 mm
Penicillium chrysogenum [10]
  zone of inhibition at 100 µg/mL: 13 mm
Aspergillus niger [11]
  zone of inhibition at 1000 µg/mL: 16 mm
Aspergillus niger [12]
  zone of inhibition at 1500 µg/mL: 19 mm
Aspergillus niger [13]
  zone of inhibition at 500 µg/mL: 15 mm
Aspergillus niger [14]
  zone of inhibition at 100 µg/mL: 11 mm
Aspergillus niger [15]
  zone of inhibition at 200 µg/mL: 13 mm
Escherichia coli [16]
  zone of inhibition at 1500 µg/mL: 21 mm
Escherichia coli [17]
  zone of inhibition at 500 µg/mL: 18 mm
Escherichia coli [18]
  zone of inhibition at 1000 µg/mL: 20 mm
Escherichia coli [19]
  zone of inhibition at 200 µg/mL: 16 mm
Escherichia coli [20]
  zone of inhibition at 100 µg/mL: 14 mm
Pseudomonas fluorescens [21]
  zone of inhibition at 100 µg/mL: 11 mm
Pseudomonas aeruginosa [22]
  zone of inhibition at 1500 µg/mL: 20 mm
Pseudomonas aeruginosa [23]
  zone of inhibition at 1000 µg/mL: 18 mm
